Where a SMILES comes first, the peptide text is derived from it. The star is where a group is joined. αGalNAc = CC(=O)N[C@@H]1[C@@H](O)[C@@H](O)[C@@H](CO)O[C@@H]1*
Molecular target: T1, GalNAc-T2 (Homo sapiens, UniProt Q10471)
T1 construct: made in house
Assay: Time-lapse AFM of single GalNAc-T2 molecules with ligands
Details: GalNAc-T2 2.0 nM on mica, PBS pH 7.4, 20 °C
Description: AFM measurements were performed using a MultiMode 8 AFM system (Bruker). […] Additional details are in Supplementary Methods. […]
simulations were performed with the acceptor amino acid – UDPGalNAc distance and the RMSD of the Cα peptide carbon atoms as collective variables.
The values of the height and width of the Gaussian-like biasing potential were selected as 1.0 kcal·mol -1 and 0.25 Å, respectively. A temperature window of ΔT = 25000 K for the well-tempered algorithm was used together with a deposition time of 1 ps. The simulation was continued until the system completely explored the free energy landscape several times which, in terms of the simulation time, corresponds to approximately 100 ns for each metadynamics run.
Atomic Force Microscopy Imaging
In Tapping Mode image operation the cantilever driven by a piezoelectric actuator vibrates near its resonance frequency. Upon approaching the sample, the tip briefly touches the surface at the bottom of each swing, resulting in a decrease in oscillation amplitude. […]
AFM scanning requires the sample be immobilized on a nanoflat surface not to be swept away. […] The concentration of the protein incubated on the mica sheets was suitable to get isolated features that could be analyzed individually. […]
GalNAc-T2 presents a net positive charge at the working pH conditions due to its theoretical isoelectric point of 8.3. The immobilization of enzymes on mica was previously evaluated observing clearly they preserve the enzymatic activity5.
To determine how the ligands affect the conformational dynamics of GalNAc-T2, the enzyme was also incubated with ligands for 10 min under mild stirring at room temperature. […] AFM images were further analyzed by using the WSxM software6. […] At least 10 images of 10 different areas of 500 nm2 were analyzed for every sample and environment. Furthermore, each feature or associate was analyzed in detail with the zoom function of the WSxM program, performed without losing image information and or the discarding of artifacts. […]

T1 sequence (Q10471 75-571 limits assumed): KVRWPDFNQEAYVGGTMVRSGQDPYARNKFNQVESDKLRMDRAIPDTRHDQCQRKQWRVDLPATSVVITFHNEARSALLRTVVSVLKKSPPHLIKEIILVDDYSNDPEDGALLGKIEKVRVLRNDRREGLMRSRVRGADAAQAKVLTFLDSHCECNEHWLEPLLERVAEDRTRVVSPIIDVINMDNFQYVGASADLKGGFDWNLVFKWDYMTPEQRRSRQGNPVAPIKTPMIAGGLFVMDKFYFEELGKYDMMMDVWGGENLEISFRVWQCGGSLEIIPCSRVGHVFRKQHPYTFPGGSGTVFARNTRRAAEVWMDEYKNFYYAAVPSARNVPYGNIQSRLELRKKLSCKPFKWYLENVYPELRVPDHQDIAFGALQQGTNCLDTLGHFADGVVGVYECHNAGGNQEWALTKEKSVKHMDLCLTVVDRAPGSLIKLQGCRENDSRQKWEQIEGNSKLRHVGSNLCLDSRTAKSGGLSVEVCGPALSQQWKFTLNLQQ

| SMILES | conformational states of GalNAc-T2 observed (peptide alone or in combination with UDP/Mn+2, peptides 10.0 nM) | conformational states of GalNAc-T2 observed (in the presence of Mn+2, UDP, UDP-GalNAc and MnCl2 20.0 nM) |
| --- | --- | --- |
| CC(=O)NCC(=O)N[C@H](C(=O)N[C@H](C(=O)N1CCC[C@H]1C(=O)N[C@@H](CO)C(=O)N1CCC[C@H]1C(=O)N[C@H](C(=O)N1CCC[C@H]1C(=O)N[C@H](C(=O)N[C@H](C(=O)N[C@@H](CO)C(=O)N[C@H](C(=O)N[C@H](C(=O)N[C@@H](CO)C(=O)N[C@@H](C)C(N)=O)[C@@H](C)O[C@H]1O[C@H](CO)[C@H](O)[C@H](O)[C@H]1NC(C)=O)[C@@H](C)O)[C@@H](C)O)[C@@H](C)O)C(C)C)[C@@H](C)O)[C@@H](C)O [MUC5AC-13] (Ac-GTTPSPVPTTSTT(αGalNAc)SA-NH2; N-terminus assumed) | three different conformational states are present |  |
| O=c1ccn([C@@H]2O[C@H](COP(=O)(O)OP(=O)(O)O)[C@@H](O)[C@H]2O)c(=O)[nH]1 [UDP, uridine diphosphate, reference compound] |  | either the very compact or the compact structure |
